Here are results for five compounds from patent publication US20020040005A1, “Composition and method of treating cancer” (priority 1995, published 2002).

The subject of data set [1] is HeLa cells. The note with it: cited from earlier work; for cell growth: in vitro, dose dependently.
Data set [2] deals with Raji lymphoma cells. The note with it: cited from earlier work; for cell growth: in vitro, dose dependently.
Data set [3] has as its system skin tumors promoted by TPA. The conditions noted are these: two-step initiation-promotion protocol; cited from earlier work.
In data set [4] the test system is 12-O-tetradecanoyl-phorbol-13-acetate (TPA) effects in mouse epidermis. The conditions noted are these: applied topically to mouse skin; cited from earlier work.
The subject of data set [5] is Multiple Myelomas. In words: Clinical experimental trials in Cuba, voluntary patients: multiple myelomas. The class given is in vivo, human. The text has this:
(§1) The following clinical data was collected on voluntary patients during clinical experimental trials in Cuba. A 10% concentration of tannic acid was used in all of the clinical studies set forth below.

Data set [6] deals with Acute Lymphocytic Leukemia. In words: Clinical experimental trials in Cuba, voluntary patients: acute lymphocytic leukemia. The class given is in vivo, human. The conditions noted are these: for time to relapse after completion of therapy: leukemia cells encysted in the testes.
Source text: as §1

Data set [7] concerns Monoblastic Leukemia. Nature of the data set: Clinical experimental trials in Cuba, voluntary patients: monoblastic leukemia. The class given is in vivo, human. The conditions noted are these: Patient #17, no improvement with chemotherapy; maximum levels, one year.
Source text: as §1

Data set [8] relates to Carcinoma of the uterus. In words: Clinical experimental trials in Cuba, voluntary patients: carcinoma of the uterus. The conditions noted are these: for clinical outcome: one year. The class given is in vivo, human.
Source text: as §1

Data set [9] has as its system Liposarcoma of the right thigh. In words: Clinical experimental trials in Cuba, voluntary patients: liposarcoma. The class given is in vivo, human. The conditions noted are these: Patient #18, two unsuccessful operations; maximum levels, one year.
Source text: as §1

The test system of data set [10] is Hypernephroma (Cancer of Kidney). Nature of the data set: Clinical experimental trials in Cuba, voluntary patients: hypernephroma. The class given is in vivo, human.
Source text: as §1

Data set [11] deals with Prostate Carcinoma. In words: Clinical experimental trials in Cuba, voluntary patients: prostate carcinoma. The class given is in vivo, human. The conditions noted are these: 10% tannic acid.
Source text: as §1

Data set [12] has as its system epidermal PAH metabolism, PAH-induced skin tumorigenesis. The conditions noted are these: applied topically to Sencar mice; cited from earlier work.
Data set [13] has as its system Hodgkin's Lymphoma. In words: Clinical experimental trials in Cuba, voluntary patients: Hodgkin's lymphoma. The conditions noted are these: Patient #14, chemotherapy discontinued, considered terminal; one year. The class given is in vivo, human.
Source text: as §1

Data set [14] deals with Breast carcinoma. Nature of the data set: Clinical experimental trials in Cuba, voluntary patients: breast carcinoma. It counts as in vivo, human. The conditions noted are these: for clinical outcome: terminal.
Source text: as §1

Data set [15] relates to Carcinoma of penis. In words: Clinical experimental trials in Cuba, voluntary patients: carcinoma of penis. The class given is in vivo, human. The note with it: Patient #11, metastasized, terminal; maximum levels after surgery, one year.
Source text: as §1

The test system of data set [16] is Cancerous Lesion of the Tongue. Nature of the data set: Clinical experimental trials in Cuba, voluntary patients: cancerous lesion of the tongue. It counts as in vivo, human. The conditions noted are these: Patient #10, conventional treatment ineffective; 3 months at stage 1 dosage.
Source text: as §1

Data set [17] concerns Carcinoma of the Bladder. In words: Clinical experimental trials in Cuba, voluntary patients: carcinoma of the bladder. The class given is in vivo, human.
Source text: as §1

Data set [18] deals with Colon Carcinoma. Nature of the data set: Clinical experimental trials in Cuba, voluntary patients: colon carcinoma. The class given is in vivo, human.
Source text: as §1

Take `O=C(/C=C/c1ccc(O)c(O)c1)c1ccc(O)cc1O` [Butein]: the growth inhibition in data set [1] (10 microM, cell line not stated, more effective on HeLa cells) was 30%.

For `CC1=C(/C=C/C(C)=C/C=C/C(C)=C/CO)C(C)(C)CCC1` [Retinol, reference compound], the cell proliferation result in data set [1] (100 microM, HeLa) was “inhibited cell proliferation completely”; in data set [2] (100 microM), “inhibited cell proliferation completely”.

Turning to `O=c1oc2c(O)c(O)cc3c(=O)oc4c(O)c(O)cc1c4c23` [ellagic acid, reference compound], in [3], the “incidence and yield of skin tumors promoted by TPA” value is “inhibited”. In addition, in data set [4], the “TPA-induced DNA synthesis” value is “inhibited”, the TPA-induced hydroperoxide production entry is listed as “inhibited” and the “TPA-induced ornithine decarboxylase activity” value is “inhibited”.

For the compound `O=C(O)c1cc(O)c(O)c(O)c1` [gallic acid, reference compound], the cell growth entry in data set [1] (HeLa) and in data set [2] was “inhibited” throughout.

In the case of `O=C(OC[C@H]1O[C@@H](OC(=O)c2cc(O)c(O)c(OC(=O)c3cc(O)c(O)c(O)c3)c2)[C@H](OC(=O)c2cc(O)c(O)c(OC(=O)c3cc(O)c(O)c(O)c3)c2)[C@@H](OC(=O)c2cc(O)c(O)c(OC(=O)c3cc(O)c(O)c(O)c3)c2)[C@@H]1OC(=O)c1cc(O)c(O)c(OC(=O)c2cc(O)c(O)c(O)c2)c1)c1cc(O)c(O)c(OC(=O)c2cc(O)c(O)c(O)c2)c1` [tannic acid], the “X-rays at the end of the therapy” value in [5] (Patient #19, metastasis in hips and ribs, maximum levels, three month period, no other therapy) was “actual regeneration of skeletal tissue and structure”. Further, the “time to death of Myeloma after stopping treatment” value in data set [5] (Patient #19, refused treatment after three months) is “four”. For the same compound, the “outcome of first therapy period” value in data set [6] (Patient #8, terminal, one year at maximum dosage) was “Patient initially showed signs of being cured”; in [6] (Patient #12, maximum level, one year) it was “Patient initially showed signs of being cured”. Moreover, the figures for the “time to relapse after completion of therapy” value in data set [6] (Patient #8) and in data set [6] (Patient #12) were “two” and “about 2 years”, respectively. In addition, the “outcome of readministered therapy” value is “patient was cured” in [6] (Patient #8, year long treatment period after relapse); “Patient was cured and subsequent check-ups have been negative” in data set [6] (Patient #12, readministered for one year after relapse); “They were cured of uterine cancer” in [8] (Patient #15, carcinoma of the uterus discovered two years after first therapy, readministered one year). Besides, the overall bloodwork result in [6] (Patient #13, no improvement with prior chemotherapy) is listed as “immediately overall bloodwork returned to normal parameters”. For the same compound, the clinical outcome was “They were cured of monoblastic Leukemia and has had no relapse” in data set [7]; “They were cured of the cancer throughout their body” in data set [8] (Patient #5, metastatic growth throughout internal organs, terminal, maximum levels); “Semi-annual checkups reveal no relapse” in data set [8] (Patient #7, refused further radiation, maximum dosage, no other treatments); “They were cured of cancer, and has had no relapse” in data set [9]; “Cancer was cured” in data set [11] (Patient #1, inoperative, maximum dosage, first treatment period three months); “they were cured of disease” in [13]. For the same compound, the clinical outcome is “they were cured of cancer in all organs” in data set [14] (Patient #6, metastasis in skeletal system, lungs and liver, maximum therapy, one year); “the Doctor declared patient cured” in data set [14] (Patient #16, metastasis in both lungs and lymph nodes, maximum levels, one and one half year); “They have had no relapse and is cured of the cancer” in data set [15]; “The lesion healed and the tissue of the tongue was restored to normal” in [16]; “declared cured of cancer” in [17] (Patient #21, at 10 months); “Tumor disappeared and has not returned” in [18] (Patient #9, tumor not removed, no chemotherapy or radiation, maximum level, one year). Moreover, the cell growth entry in data set [1] (HeLa) and in data set [2] was “inhibited” in each case. Besides, the “potency relative to gallic acid” value in data set [1] (HeLa) and in [2] was “twice as potent as its monomer gallic acid” each time. Besides, the skeletal finding result in data set [10] (Patient #20, metastasis in lungs and ribs, terminal, maximum levels, after 20 days of therapy) is on record as “regeneration of ribs had occurred”. Further, the functional status result in data set [10] (Patient #20, after one month of therapy) was “the patient had returned to normal daily activities”. Moreover, in data set [10] (Patient #20, therapy discontinued at three months), the survival after therapy result is “two”. Also, the catheter removal result in data set [11] (Patient #1, two weeks after initiation of therapy) was “catheter was removed”. The PAH-DNA adduct formation entry in [12] was “substantial inhibition”. For the same compound, the PAH-induced skin tumorigenesis entry in data set [12] was “substantial inhibition”. Also, the “epidermal PAH metabolism” value in data set [12] is listed as “substantial inhibition”. For the same compound, the “incidence and yield of skin tumors promoted by TPA” value in [3] was “inhibited”. In addition, the “TPA-induced DNA synthesis” value in [4] is given as “inhibited”. In [4], the TPA-induced hydroperoxide production result is on record as “inhibited”. Also, the “TPA-induced ornithine decarboxylase activity” value in data set [4] is “inhibited”. For the same compound, the “clinical outcome (metastatic growth after surgery)” value in [14] (Patient #2, after surgery on left breast, minimal 3 month period, 10% tannic acid) is “No additional cancerous growths were detected anywhere in their body”. Further, the tumor size entry in data set [14] (Patient #3, tumor 5 cms by 5 cms, no surgery, maximum levels, after first three month interval, 10% tannic acid) is “Tumor diminished in size after first three month interval to the point where it was very difficult to detect by manual examination”. Also, the long-term outcome in data set [14] (Patient #3, therapy continued for one year) is on record as “Cancer never returned to this day”. Also, the “clinical outcome at end of therapy” value in data set [14] (Patient #15, left mammary gland removed, one year) is given as “no cancer was detected”. In addition, the “carcinoma size by cystoscopic exam” value in [17] (Patient #21, refused surgery, maximum dosage, first three month check-up) is “the carcinoma had diminished in size”. Further, the regular checkups result in data set [18] (Patient #4, maximum therapy along with chemotherapy) is listed as “all have been negative”. Besides, the blood work entry in data set [18] (Patient #4, maximum therapy simultaneously with 72 chemotherapy dosages) is reported as “normal”.
